“Also recorded” adds a separate entry of the source.
Experiments:
[1] = tested on: Zucker Diabetic Fatty (ZDF) rats; test: Glycemic control in ZDF rats, 16-day dosing plus two-week washout (Examples 102, 105); format: in vivo, rat
Method: The present examples provides the ability of Compound 10 to restore glycemic control to diabetic Zucker diabetic fatty rats (ZDF rats, genotype ZDF-Lepr^fa/Crl; Charles River). Cornicelli et al., 2005, Charles River.
(§1) Control and test compounds were stored at 4° C. and prepared weekly as needed. The vehicle for positive control pioglitazone was 0.25% carboxymethylcellulose and 1% Tween® 80 in reverse osmosis deionized water. The vehicle for Compound 10 was 10% DMSO, 10% Solutol HS 15, and 80% (10% hydroxypropyl-β-cyclodextrin in 50 mM citrate buffer at pH 3.0).
(§2) On Day −3, twenty-four ZDF rats (plus eight spare ZDF rats) were measured for body weight and non-fasting glucose. LabDiet 5008 was provided ad libitum throughout the study, except during designated procedures, as was water. In order to minimize the effects of stress on blood glucose and body, all animals including the spares received daily sham doses with phosphate buffered saline pH 7.2 (dose volume 5 mL/kg) via gavage beginning on Study Day −5 to Day −1.
Vehicle, control, and test compound were administered via oral gavage according to the following design on Days 1-16.
(§3) On Days −3, 1, 8, and 14 non-fasting blood glucose was measured. On Day 15, an oral glucose tolerance test was administered. The animals were weighed, and the animals were placed in clean cages without food. Access to water was provided throughout the procedure. The animals were fasted for five hours and a blood glucose measurement was determined. The animals were dosed via oral gavage with 2 g/kg glucose (10 mL/kg). Blood glucose was determined via tail snip. The second drop of blood from the animal was placed on a hand-held glucometer (Abbott Alpha Trak) at the following times relative to the glucose dose: zero (just prior to glucose dose), 15, 30, 60, 90, and 120 min. Following the final blood glucose measurement, food was returned to the cages. On Day 17, 4-hour fasting glucose was measured. Serum samples were used to measure insulin by ELISA. Analysis was performed in one to three days of each collections. On Day 17, terminal blood collection was obtained at about 8 mL per animal and measured for blood glucose.
(§4) ZDF rats were treated daily with Compound 10, vehicle, or pioglitazone for sixteen days and monitored for an additional two weeks post-treatment until Day 29. STZ rat models were induced through pre-treatment of animals on a high-fat diet with low doses of streptozotocin at Day −14 and Day −7 prior to starting treatment at Day Zero until Day 16. ZDF and STZ rats were monitored for fasting blood glucose levels, oral glucose tolerance test (OGTT), insulin and C-peptide levels, HOMA-IR (Homeostatic Model Assessment of Insulin Resistance), blood lipemic levels, and body weight according to the schematic for each model below. ZDF rats were analyzed for indicated readouts for fifteen days post-treatment for OGTT at Day 29, and serum insulin and C-peptide at Day 31.
ZDF Rat Model—three treatment groups 1. Vehicle; 2. Compound 10 at 175 mg/kg; and 3. Pioglitazone at 30 mg/kg; n=10 per group. Daily dosing zero to sixteen days QD→drug wash out at sixteen to twenty-nine days. Rats were monitored for the following parameters through dosing and wash out phases—body weight, fasting blood sugar, blood insulin, C-peptide, and OGTT.

[2] = tested on: streptozotocin (STZ) induced type II diabetes in Wistar Han rats; test: Glycemic control in streptozotocin-induced diabetic rats (Examples 103, 105); format: in vivo, rat
Method: The present example provides the ability of Compound 10 to restore glycemic control to streptozotocin (STZ) induced type II diabetes in Wistar Han rats. Fahmy et al., 2017, World J. Pharm. Med. Res. 3(3):37-39.
as §1, with “3.0). The vehicle for streptozotocin pretreatment was 0.1 M sodium citrate pH 4.5.” for “3.0).”
as §2, with “Wistar Han” for “ZDF”, “Starting on Day −42, D12451 Research Diet” for “LabDiet 5008”, “−1. 20% Glucose in drinking water (200 g/L) was provided ad libitum for 24 hr after streptozotocin injection on Day −14 and Day −7.” for “−1.”
On Days −14 and −7, streptozotocin was administered at 30 mg/kg/day QD intraperitoneally. Starting on Day 1, control and test compound were administered on the following schedule.
as §3, with “−7 to −1 and on Days” for “−3,”, “weighed” for “weighed,”, “venipuncture.” for “tail snip.”, “collection.” for “collections.”
as §4
STZ Rat Model—three treatment groups 1. Vehicle; 2. Compound 10 at 175 mg/kg; and 3. Pioglitazone at 30 mg/kg; n=10 per group. […] Rats were monitored for the following parameters through dosing—body weight, blood glucose levels, and OGTT.

[3] = 16 days treatment, listed as Compound 10

C=CC(=O)N[C@@H]1CCCN(Cc2ccnc(C(=O)Nc3ccc(-c4cc5c(N6CCOCC6)ncnc5[nH]4)cc3)c2)C1 [Compound A, N-[4-[4-(4-morpholinyl)-7H-pyrrolo[2,3-d]pyrimidin-6-yl]phenyl]-4-[[3(R)-[(1-oxo-2-propen-1-yl)amino]-1-piperidinyl]methyl]-2-pyridinecarboxamide] was tested, and the blood lipemic levels [1, 3] was “significantly reduces; also recorded: Significant reductions”, the body weight [1, 3] was “reduces body weight; also recorded: Significant reductions” and the “oral glucose tolerance test, glucose control” value (“oral glucose tolerance test” below) ([1]; Day 29, after fourteen days of no treatment) was “significant glucose control”. The “oral glucose tolerance test” value ([1]; after fifteen days of treatment) was “significant glucose control”, the “serum insulin and C-peptide levels” value ([1]; after two weeks of treatment, p<0.05) was “significantly reduced” and the “insulin in the non-fasting and fasting states” value ([1]; compared to vehicle and control) was “significant reduction”. The “4-hour fasting insulin and glucose” value ([1]; no therapy for two weeks) was “increasing insulin and glucose lowering”, the “insulin resistance (HOMA-IR)” value ([1]; non-fasting and fasting, listed as Compound 10) was “significant reduction; also recorded: increases insulin sensitivity; also recorded: reduced” and the “glucose in the non-fasting and fasting states” value ([1]; oral gavage Days 1-16, compared to vehicle and control) was “significant reduction”. For the same compound, the C-peptide ([1]; two weeks after therapy) was “increasing C-peptide”, the blood lipemic levels ([2]; STZ rats) was “Significant reductions” and the body weight ([2]; STZ rats) was “Significant reductions”. For the same compound, the “oral glucose tolerance test” value ([2]; STZ rats, after fifteen days of treatment) was “significant glucose control”, the “insulin in the non-fasting state” value ([2]; STZ-induced diabetes model) was “significant reduction” and the non-fasting glucose ([2]; STZ-induced diabetes model, compared to vehicle and control) was “sharp reduction”.

Source: patent publication US20260232681A1, “CRYSTALLINE FORMS OF N-[4-[4-(4-MORPHOLINYL)-7H-PYRROLO[2,3-D]PYRIMIDIN-6- YL]PHENYL]-4-[[3(R)-[(L-OXO-2-PROPEN-L-YL)AMINO]-L-PIPERIDINYL]METHYL]-2-PYRIDINECARBOXAMIDE AS A COVALENT INHIBITOR OF MENIN-MLL INTERACTION” (BIOMEA FUSION, INC., priority 2023, published 2026)
